Experimental data as given in PMC10620772, “Design, synthesis, and biological evaluation of new pyrimidine-5-carbonitrile derivatives as novel anti-cancer, dual EGFR^WT/COX-2 inhibitors with docking studies” (RSC Advances, 2023).

How the values were obtained:
Test in all cases: NCI60 antitumor screening
Format in all cases: cell-based, human
K-562 = details: for inhibition at 10 µM: Homo sapiens, 10 μM single dose, (leukaemia), read-out: growth inhibition percent (GI%)
MOLT-4 = details: Homo sapiens; 10 μM single dose; MOLT-4 (leukaemia); read-out: growth inhibition percent (GI%)
SR = details: for inhibition at 10 µM: Homo sapiens, 10 μM single dose, SR (leukaemia), read-out: growth inhibition percent (GI%)
A549/ATCC = details: Homo sapiens; 10 μM single dose; A549/ATCC (non-small cell lung cancer); read-out: growth inhibition percent (GI%)
HOP-92 = details: Homo sapiens; 10 μM single dose; HOP-92 (non-small cell lung cancer); read-out: growth inhibition percent (GI%)
NCI-H226 = details: for inhibition at 10 µM: Homo sapiens, 10 μM single dose, NCI-H226 (non-small cell lung cancer), read-out: growth inhibition percent (GI%)
NCI-H322M = details: Homo sapiens; 10 μM single dose; NCI-H322M (non-small cell lung cancer); read-out: growth inhibition percent (GI%)
HCT-15 = details: Homo sapiens; 10 μM single dose; HCT-15 (colon cancer); read-out: growth inhibition percent (GI%)
KM12 = details: Homo sapiens; 10 μM single dose; KM12 (colon cancer); read-out: growth inhibition percent (GI%)
SW-620 = details: Homo sapiens; 10 μM single dose; SW-620 (colon cancer); read-out: growth inhibition percent (GI%)
SF-268 = details: Homo sapiens; 10 μM single dose; SF-268 (CNS cancer); read-out: growth inhibition percent (GI%)
SF-295 = details: Homo sapiens; 10 μM single dose; SF-295 (CNS cancer); read-out: growth inhibition percent (GI%)
SF-539 = details: for inhibition at 10 µM: Homo sapiens, 10 μM single dose, SF-539 (CNS cancer), read-out: growth inhibition percent (GI%)
MALME-3M = details: Homo sapiens; 10 μM single dose; MALME-3M (melanoma); read-out: growth inhibition percent (GI%)
MDA-MB-435 = details: Homo sapiens; 10 μM single dose; MDA-MB-435 (melanoma); read-out: growth inhibition percent (GI%)
SK-MEL-2 = details: Homo sapiens; 10 μM single dose; SK-MEL-2 (melanoma); read-out: growth inhibition percent (GI%)
SK-MEL-5 = details: Homo sapiens; 10 μM single dose; SK-MEL-5 (melanoma); read-out: growth inhibition percent (GI%)
UACC-257 = details: Homo sapiens; 10 μM single dose; UACC-257 (melanoma); read-out: growth inhibition percent (GI%)
UACC-62 = details: Homo sapiens; 10 μM single dose; UACC-62 (melanoma); read-out: growth inhibition percent (GI%)
OVCAR-4 = details: for inhibition at 10 µM: Homo sapiens, 10 μM single dose, OVCAR-4 (ovarian cancer), read-out: growth inhibition percent (GI%)
OVCAR-5 = details: Homo sapiens; 10 μM single dose; OVCAR-5 (ovarian cancer); read-out: growth inhibition percent (GI%)
OVCAR-8 = details: Homo sapiens; 10 μM single dose; OVCAR-8 (ovarian cancer); read-out: growth inhibition percent (GI%)
SK-OV-3 = details: Homo sapiens; 10 μM single dose; SK-OV-3 (ovarian cancer); read-out: growth inhibition percent (GI%)
CAKI-1 = details: Homo sapiens; 10 μM single dose; CAKI-1 (renal cancer); read-out: growth inhibition percent (GI%)
MCF7 = details: Homo sapiens; 10 μM single dose; MCF7 (breast cancer); read-out: growth inhibition percent (GI%)
MDA-MB-231/ATCC = details: Homo sapiens; 10 μM single dose; MDA-MB-231/ATCC (breast cancer); read-out: growth inhibition percent (GI%)
HS 578T = details: for inhibition at 10 µM: Homo sapiens, 10 μM single dose, HS 578T (breast cancer), read-out: growth inhibition percent (GI%)
MDA-MB-468 = details: Homo sapiens; 10 μM single dose; MDA-MB-468 (breast cancer); read-out: growth inhibition percent (GI%)

Compound | inhibition at 10 µM (K-562) [%] | inhibition at 10 µM (MOLT-4) [%] | inhibition at 10 µM (SR) [%] | inhibition at 10 µM (A549/ATCC) [%] | inhibition at 10 µM (HOP-92) [%] | inhibition at 10 µM (NCI-H226) [%] | inhibition at 10 µM (NCI-H322M) [%] | inhibition at 10 µM (HCT-15) [%] | inhibition at 10 µM (KM12) [%] | inhibition at 10 µM (SW-620) [%] | inhibition at 10 µM (SF-268) [%] | inhibition at 10 µM (SF-295) [%] | inhibition at 10 µM (SF-539) [%] | inhibition at 10 µM (MALME-3M) [%] | inhibition at 10 µM (MDA-MB-435) [%] | inhibition at 10 µM (SK-MEL-2) [%] | inhibition at 10 µM (SK-MEL-5) [%] | inhibition at 10 µM (UACC-257) [%] | inhibition at 10 µM (UACC-62) [%] | inhibition at 10 µM (OVCAR-4) [%] | further results
CN1CCN(c2nc(SCc3ccccc3)nc(-c3ccc(F)cc3)c2C#N)CC1 [4i, 2-(Benzylthio)-4-(4-fluorophenyl)-6-(4-methylpiperazin-1-yl) pyrimidine-5-carbonitrile] | 73.2 | 49.8 | 71 | 38.3 | 22.7 | < 10 | 16 | 46.8 | 19.1 | 10 | 26.8 | 12.3 | 14.4 | < 10 | 12.8 | < 10 | 33.6 | 27.8 | 19.6 | 22.5 | GI% (K-562; 10 μM one-dose, Table 1): 73.15%; GI% (SR; 10 μM one-dose, Table 1): 70.98%; GI% (NCI-H226; 10 μM one-dose, Table 1): — (GI value > 70%); GI% (SF-539; 10 μM one-dose, Table 1): — (GI value > 70%); GI% (OVCAR-4; 10 μM one-dose, Table 1): — (GI value > 70%); inhibition at 10 µM (OVCAR-5): < 10%; inhibition at 10 µM (OVCAR-8): 14.1%; inhibition at 10 µM (SK-OV-3): < 10%; inhibition at 10 µM (CAKI-1): 37.9%; inhibition at 10 µM (MCF7): 30.8%; inhibition at 10 µM (MDA-MB-231/ATCC): 15.9%; GI% (HS 578T; 10 μM one-dose, Table 1): — (GI value > 70%); inhibition at 10 µM (HS 578T): 32%; inhibition at 10 µM (MDA-MB-468): 29.2%
N#Cc1c(-c2ccc(F)cc2)nc(SCc2ccc([N+](=O)[O-])cc2)nc1N1CCNCC1 [4g, 4-(4-Fluorophenyl)-2-((4-nitrobenzyl)thio)-6-(piperazin-1-yl) pyrimidine-5-carbonitrile] | < 10 | < 10 | < 10 | < 10 | < 10 | < 10 | < 10 | < 10 | < 10 | < 10 | < 10 | < 10 | < 10 | < 10 | < 10 | < 10 | < 10 | < 10 | < 10 | < 10 | inhibition at 10 µM (OVCAR-5): < 10%; inhibition at 10 µM (OVCAR-8): < 10%; inhibition at 10 µM (SK-OV-3): < 10%; inhibition at 10 µM (CAKI-1): 11%; inhibition at 10 µM (MCF7): < 10%; inhibition at 10 µM (MDA-MB-231/ATCC): < 10%; inhibition at 10 µM (HS 578T): < 10%; inhibition at 10 µM (MDA-MB-468): < 10%
